Measured values taken from ChEMBL document CHEMBL1201862, “PubChem BioAssay data set” (2004).
Calls of active or inactive are those of the source.

What was measured:
[1] = biological target: T1, Polyadenylate-binding protein 1 (Homo sapiens, UniProt P11940); experiment: MLLE domain peptide-binding blockers, IC50 – biochemical, fluorescence polarization, FITC-PAM2 peptide, dose response (AID 602259); format: functional; settings: read-out: IC50_Mean
[2] = biological target: T1, Polyadenylate-binding protein 1; experiment: MLLE binding blockers, Cy5 peptide tracer – biochemical, fluorescence polarization, Cy5-PAM2 peptide, secondary, miRNA deadenylation inhibitor project, dose response (AID 602260); format: functional; settings: read-out: IC50_Mean
[3] = biological target: Female germline-specific tumor suppressor gld-1 (Caenorhabditis elegans, UniProt Q17339); experiment: blockers of GLD-1/TGE RNA complex formation – biochemical, fluorescence polarization, C. elegans, dose response (AID 2802);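 note: fluorescence polarization of labeled TGE RNA bound by purified gld-1 protein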
Sequence of Female germline-specific tumor suppressor gld-1 (Q17339 whole entry): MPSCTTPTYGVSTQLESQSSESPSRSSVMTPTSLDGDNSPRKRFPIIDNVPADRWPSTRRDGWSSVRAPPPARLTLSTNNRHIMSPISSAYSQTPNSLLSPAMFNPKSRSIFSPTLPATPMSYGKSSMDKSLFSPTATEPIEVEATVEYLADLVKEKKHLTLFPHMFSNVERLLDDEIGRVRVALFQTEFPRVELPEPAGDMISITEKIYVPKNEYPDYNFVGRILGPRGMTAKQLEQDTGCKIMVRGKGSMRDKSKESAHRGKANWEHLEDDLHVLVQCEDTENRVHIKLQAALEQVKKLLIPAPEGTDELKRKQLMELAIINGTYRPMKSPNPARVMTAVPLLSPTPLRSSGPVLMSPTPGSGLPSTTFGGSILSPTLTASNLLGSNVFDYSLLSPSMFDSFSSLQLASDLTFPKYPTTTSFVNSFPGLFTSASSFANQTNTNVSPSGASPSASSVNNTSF

Protein Rev = Protein Rev (Human immunodeficiency virus type 1 group M subtype B (isolate HXB2)(HIV-1), UniProt P04618); experiment: blockers of HIV Rev/RRE RNA complex – biochemical, fluorescence polarization, HIV-1, dose response (AID 434976); design: species or system Human immunodeficiency virus 1
Sequence of Protein Rev (P04618 whole entry, the tested form may be a part): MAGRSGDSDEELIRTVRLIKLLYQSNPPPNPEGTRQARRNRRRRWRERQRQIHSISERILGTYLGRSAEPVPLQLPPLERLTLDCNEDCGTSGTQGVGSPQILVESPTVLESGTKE

CHO = CHO cell viability loss, potency – luminescence, cytotoxicity control for TLR9-MyD88 binding inhibitor project, dose response (AID 588339); format: functional, cell-based, hamster; settings: Cricetulus griseus;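 note: CHO cells stably coexpressing TLR9 and MyD88 fusions from primary screen; compound exposure lasted 48 hours before viability readout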
Beta Lactamase = Beta Lactamase (Pseudomonas aeruginosa, UniProt Q932Y6); experiment: BLA reporter interference, concentration series – BLA reporter cells, FRET fluorescence, artefact control for TLR9-MyD88 binding inhibitor project, dose response (AID 588341); format: cell-based;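 note: cell based assay in CHO-K1 cells stably expressing beta-lactamase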
Sequence of Beta Lactamase (Q932Y6 whole entry): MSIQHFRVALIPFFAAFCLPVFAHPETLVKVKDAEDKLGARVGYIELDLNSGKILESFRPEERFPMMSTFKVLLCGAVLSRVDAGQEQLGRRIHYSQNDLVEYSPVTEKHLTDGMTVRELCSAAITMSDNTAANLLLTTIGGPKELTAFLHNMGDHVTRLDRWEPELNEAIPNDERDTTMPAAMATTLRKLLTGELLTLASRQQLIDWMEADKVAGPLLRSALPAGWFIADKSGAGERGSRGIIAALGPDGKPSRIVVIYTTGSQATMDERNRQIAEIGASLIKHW

Large T antigen = Large T antigen (Simian virus 40, UniProt P03070); format: functional, Betapolyomavirus macacae;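 note: Confirmatory-stage PubChem screen for compounds that inhibit SV40 T antigen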
Sequence of Large T antigen (P03070 whole entry): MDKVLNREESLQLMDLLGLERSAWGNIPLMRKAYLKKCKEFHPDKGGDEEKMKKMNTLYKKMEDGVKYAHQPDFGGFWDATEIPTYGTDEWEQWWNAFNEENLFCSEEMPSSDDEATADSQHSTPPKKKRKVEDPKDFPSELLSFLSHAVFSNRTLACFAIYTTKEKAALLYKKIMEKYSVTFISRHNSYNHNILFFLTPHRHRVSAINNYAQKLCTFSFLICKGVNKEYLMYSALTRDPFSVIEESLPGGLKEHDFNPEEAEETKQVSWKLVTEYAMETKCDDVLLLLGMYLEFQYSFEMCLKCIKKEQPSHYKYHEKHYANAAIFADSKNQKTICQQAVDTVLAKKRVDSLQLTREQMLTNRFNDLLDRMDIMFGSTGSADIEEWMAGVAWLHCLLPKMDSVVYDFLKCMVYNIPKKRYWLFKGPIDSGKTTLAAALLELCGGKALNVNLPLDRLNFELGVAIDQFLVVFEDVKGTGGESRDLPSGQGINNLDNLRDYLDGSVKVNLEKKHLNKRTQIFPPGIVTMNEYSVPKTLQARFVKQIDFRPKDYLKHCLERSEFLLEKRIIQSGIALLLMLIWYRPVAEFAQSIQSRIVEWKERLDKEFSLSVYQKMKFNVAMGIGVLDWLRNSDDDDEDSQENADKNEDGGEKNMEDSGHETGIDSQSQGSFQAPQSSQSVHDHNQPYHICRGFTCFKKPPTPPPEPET

Aspartyl aminopeptidase = Aspartyl aminopeptidase (Plasmodium falciparum 3D7, UniProt Q8I2J3)
Sequence of Aspartyl aminopeptidase (Q8I2J3 whole entry): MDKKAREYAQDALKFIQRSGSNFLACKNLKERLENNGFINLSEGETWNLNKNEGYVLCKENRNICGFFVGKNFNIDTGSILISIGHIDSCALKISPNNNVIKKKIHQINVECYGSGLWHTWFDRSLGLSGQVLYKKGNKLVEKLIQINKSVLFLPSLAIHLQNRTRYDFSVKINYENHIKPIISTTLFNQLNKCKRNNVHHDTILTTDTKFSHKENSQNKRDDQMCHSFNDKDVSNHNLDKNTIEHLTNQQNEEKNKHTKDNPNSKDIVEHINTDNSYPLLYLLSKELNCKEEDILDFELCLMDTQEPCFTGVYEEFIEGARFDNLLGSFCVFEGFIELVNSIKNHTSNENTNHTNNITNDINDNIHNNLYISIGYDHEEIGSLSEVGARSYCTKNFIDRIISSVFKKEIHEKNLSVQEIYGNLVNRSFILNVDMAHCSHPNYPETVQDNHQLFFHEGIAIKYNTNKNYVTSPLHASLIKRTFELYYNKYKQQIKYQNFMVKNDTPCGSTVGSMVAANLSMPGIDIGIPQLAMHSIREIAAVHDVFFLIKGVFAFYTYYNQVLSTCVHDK

cells [4] = format: functional, cell-based
[5] = biological target: T2, RNA-binding protein pos-1 (Caenorhabditis elegans, UniProt G5EF15); experiment: disruptors of C. elegans POS-1 RNA interaction – biochemical, fluorescence polarization, dose response (AID 1964);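 note: purified POS-1 fused to maltose binding protein made in E. coli; potency of compounds blocking POS-1 binding to fluorescent RNA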
T2 sequence (G5EF15 whole entry): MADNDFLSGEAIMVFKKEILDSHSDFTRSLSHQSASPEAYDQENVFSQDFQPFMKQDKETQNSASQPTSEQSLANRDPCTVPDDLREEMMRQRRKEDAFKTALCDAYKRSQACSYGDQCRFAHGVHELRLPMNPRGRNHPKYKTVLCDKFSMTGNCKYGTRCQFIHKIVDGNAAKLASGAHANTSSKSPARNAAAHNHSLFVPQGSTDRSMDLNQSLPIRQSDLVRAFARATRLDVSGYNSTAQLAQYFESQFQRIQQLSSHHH

[6] = biological target: FAD-linked sulfhydryl oxidase ALR (Homo sapiens, UniProt P55789); experiment: ALR-catalysed DTT oxidation blockers – biochemical, H2O2 detection, luminescence, cherry-pick, dose response (AID 493248)
Sequence of FAD-linked sulfhydryl oxidase ALR (P55789 whole entry): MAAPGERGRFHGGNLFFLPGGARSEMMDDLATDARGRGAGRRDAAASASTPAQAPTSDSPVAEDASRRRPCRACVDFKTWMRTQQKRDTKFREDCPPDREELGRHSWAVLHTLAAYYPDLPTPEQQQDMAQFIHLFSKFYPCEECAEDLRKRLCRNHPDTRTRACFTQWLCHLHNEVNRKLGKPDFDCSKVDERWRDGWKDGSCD

cells [7] = format: functional, cell-based; remark: listed apart in the source
Procathepsin L = Procathepsin L (Homo sapiens, UniProt P07711)
Sequence of Procathepsin L (P07711 whole entry): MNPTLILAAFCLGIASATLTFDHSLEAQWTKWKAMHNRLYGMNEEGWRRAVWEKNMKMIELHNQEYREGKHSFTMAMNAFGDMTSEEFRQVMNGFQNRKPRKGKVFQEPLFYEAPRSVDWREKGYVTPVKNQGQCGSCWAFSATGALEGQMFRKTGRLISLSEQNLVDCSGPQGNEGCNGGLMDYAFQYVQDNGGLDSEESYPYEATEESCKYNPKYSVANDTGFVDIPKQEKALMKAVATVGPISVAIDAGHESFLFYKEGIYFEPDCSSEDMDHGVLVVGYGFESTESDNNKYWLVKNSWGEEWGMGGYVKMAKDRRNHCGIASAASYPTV

[8] = biological target: T3, Zinc finger protein mex-5 (Caenorhabditis elegans, UniProt Q9XUB2); experiment: potency of MEX-5 RNA-binding blockers – biochemical, C. elegans, fluorescence polarization, dose response (AID 1960)
T3 sequence (Q9XUB2 whole entry): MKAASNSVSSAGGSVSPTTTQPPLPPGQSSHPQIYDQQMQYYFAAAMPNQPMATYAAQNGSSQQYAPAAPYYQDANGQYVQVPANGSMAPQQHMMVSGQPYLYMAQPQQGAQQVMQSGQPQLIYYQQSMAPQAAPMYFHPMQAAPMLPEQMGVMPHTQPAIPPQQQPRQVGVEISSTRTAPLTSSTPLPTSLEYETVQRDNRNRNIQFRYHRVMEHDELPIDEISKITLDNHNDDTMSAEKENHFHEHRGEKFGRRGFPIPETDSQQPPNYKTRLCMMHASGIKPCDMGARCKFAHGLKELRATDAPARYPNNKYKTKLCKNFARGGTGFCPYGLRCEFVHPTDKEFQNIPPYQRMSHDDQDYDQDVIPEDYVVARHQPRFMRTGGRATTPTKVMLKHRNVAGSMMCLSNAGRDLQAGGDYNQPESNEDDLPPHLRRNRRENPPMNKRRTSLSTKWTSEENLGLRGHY

[9] = viability of PTEN-deleted HCT116 cells – cell-based, HCT116 PTEN knockout, dose response (AID 1047); format: functional;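 note: HCT116 colon tumor cells with PTEN knocked out; cells exposed to compound for 60 hours before readout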
[10] = HEK-293T cell viability reduction – luminescence, B-cell screen hits, cytotoxicity control for BCR NF-kB inhibitor project, dose response (AID 489021); format: functional, cell-based;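 note: HEK-293T cells carrying an NF-kB luciferase reporter; cells exposed to compound for about 14 hours before viability readout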
[11] = biological target: T4, Heat shock factor protein 1 (Mus musculus, UniProt P38532); experiment: enhancement of HSF1-driven luciferase signal – cell-based, NIH3T3, luminescence, dose retest, confirmation (AID 435004); format: functional;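 note: stress induced by proteasome inhibitor MG132 added 30 min after compound; luciferase reporter driven by HSF1 response element in NIH3T3 cells; actives raise luminescence as potentiators of the MG132 stress response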
T4 sequence (P38532 whole entry): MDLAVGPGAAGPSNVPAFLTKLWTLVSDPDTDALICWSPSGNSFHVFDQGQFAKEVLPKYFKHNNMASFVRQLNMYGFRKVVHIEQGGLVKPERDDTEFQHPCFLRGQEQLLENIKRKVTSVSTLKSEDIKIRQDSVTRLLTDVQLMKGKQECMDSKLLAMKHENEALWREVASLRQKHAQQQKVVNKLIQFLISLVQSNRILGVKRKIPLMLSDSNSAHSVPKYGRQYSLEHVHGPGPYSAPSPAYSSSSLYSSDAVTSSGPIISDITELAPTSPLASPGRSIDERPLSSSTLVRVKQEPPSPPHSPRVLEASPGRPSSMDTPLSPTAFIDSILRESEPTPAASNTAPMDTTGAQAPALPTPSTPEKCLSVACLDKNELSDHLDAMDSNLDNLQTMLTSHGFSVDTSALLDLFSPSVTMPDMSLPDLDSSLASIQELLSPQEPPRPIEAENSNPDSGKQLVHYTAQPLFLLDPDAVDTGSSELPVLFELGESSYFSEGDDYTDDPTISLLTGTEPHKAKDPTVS

[12] = viability of HCT116 lacking mutant beta-catenin – cell-based, human colon tumor, dose response (AID 1045); format: functional;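 note: HCT116 colon tumor cells with beta catenin knocked out; cells exposed to compound for 60 hours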
[13] = biological target: Serine/threonine-protein phosphatase PP1-alpha catalytic subunit (Homo sapiens, UniProt P62136); experiment: inhibition of protein phosphatase 1 activity – biochemical, fluorescence, dose response (AID 2403);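 note: phosphatase turnover of OMFP into fluorescent 3-O-methylfluorescein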
Sequence of Serine/threonine-protein phosphatase PP1-alpha catalytic subunit (P62136 whole entry): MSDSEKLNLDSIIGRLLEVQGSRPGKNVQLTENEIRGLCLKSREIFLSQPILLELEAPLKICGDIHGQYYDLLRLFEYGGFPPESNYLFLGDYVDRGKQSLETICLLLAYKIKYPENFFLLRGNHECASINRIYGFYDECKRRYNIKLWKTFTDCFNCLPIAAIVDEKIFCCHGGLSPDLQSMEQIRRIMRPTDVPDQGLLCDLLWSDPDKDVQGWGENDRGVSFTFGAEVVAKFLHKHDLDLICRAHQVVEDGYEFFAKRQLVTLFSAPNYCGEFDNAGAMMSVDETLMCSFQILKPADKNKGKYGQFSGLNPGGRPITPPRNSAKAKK

[14] = biological target: T5, Serine/threonine-protein phosphatase (Homo sapiens, UniProt Q9BPW0); experiment: Counterscreen for inhibitors of PP1: fluorescence-based biochemical high throughput dose response assay to identify inhibitors of Protein Phosphatase 5 (PP5). [Related pubchem assays: 2034 (Summary (PP5 inhibitors)), 1987 (PP5 inhibitors in singlate), 2235 (PP1 inhibitors in singlate)]
T5 sequence (Q9BPW0 whole entry): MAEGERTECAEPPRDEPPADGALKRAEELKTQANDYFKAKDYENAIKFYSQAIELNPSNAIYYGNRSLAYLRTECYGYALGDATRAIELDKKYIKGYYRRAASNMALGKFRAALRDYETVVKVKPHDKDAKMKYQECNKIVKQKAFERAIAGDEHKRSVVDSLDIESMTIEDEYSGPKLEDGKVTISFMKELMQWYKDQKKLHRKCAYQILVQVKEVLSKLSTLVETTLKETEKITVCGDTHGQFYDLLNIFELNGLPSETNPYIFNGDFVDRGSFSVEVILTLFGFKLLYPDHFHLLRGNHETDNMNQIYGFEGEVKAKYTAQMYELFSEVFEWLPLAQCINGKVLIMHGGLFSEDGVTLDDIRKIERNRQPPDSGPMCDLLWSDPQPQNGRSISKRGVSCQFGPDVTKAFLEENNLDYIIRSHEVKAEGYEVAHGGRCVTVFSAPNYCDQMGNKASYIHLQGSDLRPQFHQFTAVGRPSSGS

INS1 = experiment: INS-1E survival protection against cytokine death – cell-based, luminescence, retest, dose response (AID 449756); format: functional; settings: Rattus norvegicus;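 note: cell death triggered by IL-1 beta plus TNF-alpha plus IFN-gamma mixture; protective hits raise ATP signal compared with cytokine alone wells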
[15] = system: Streptococcus sp. 'group A'; experiment: Streptococcus pyogenes SK(-)GAS viability under kanamycin – luminescence, BacTiterGlo, confirmation, counter-screen for streptokinase expression inhibitor project, dose response (AID 1900); format: functional, organism-based
[16] = Trypanosoma cruzi growth suppression in host cells – NIH3T3 host cells, beta-gal luminescence, confirmation (AID 2044); format: functional, cell-based;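 note: intracellular parasites grown in NIH/3T3 mouse fibroblasts as host cells; luminescent beta-galactosidase reporter signal from transgenic T. cruzi replicating inside host cells; inhibitors lower the luminescence signal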
[17] = NIH3T3 cell viability loss – ATP luminescence, mouse fibroblasts, counter-screen, dose response (AID 2010); format: functional, cell-based;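 note: cells exposed to compound for about 90 hours before reading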
Streptococcus = experiment: GAS UMAA2166 growth inhibition – luminescence, BacTiterGlo, counter-screen for streptokinase expression inhibitor project, dose response (AID 1915); format: functional, organism-based;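 note: potency for reduction of bacterial viability or growth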

T1 sequence (P11940 whole entry, the tested form may be a part): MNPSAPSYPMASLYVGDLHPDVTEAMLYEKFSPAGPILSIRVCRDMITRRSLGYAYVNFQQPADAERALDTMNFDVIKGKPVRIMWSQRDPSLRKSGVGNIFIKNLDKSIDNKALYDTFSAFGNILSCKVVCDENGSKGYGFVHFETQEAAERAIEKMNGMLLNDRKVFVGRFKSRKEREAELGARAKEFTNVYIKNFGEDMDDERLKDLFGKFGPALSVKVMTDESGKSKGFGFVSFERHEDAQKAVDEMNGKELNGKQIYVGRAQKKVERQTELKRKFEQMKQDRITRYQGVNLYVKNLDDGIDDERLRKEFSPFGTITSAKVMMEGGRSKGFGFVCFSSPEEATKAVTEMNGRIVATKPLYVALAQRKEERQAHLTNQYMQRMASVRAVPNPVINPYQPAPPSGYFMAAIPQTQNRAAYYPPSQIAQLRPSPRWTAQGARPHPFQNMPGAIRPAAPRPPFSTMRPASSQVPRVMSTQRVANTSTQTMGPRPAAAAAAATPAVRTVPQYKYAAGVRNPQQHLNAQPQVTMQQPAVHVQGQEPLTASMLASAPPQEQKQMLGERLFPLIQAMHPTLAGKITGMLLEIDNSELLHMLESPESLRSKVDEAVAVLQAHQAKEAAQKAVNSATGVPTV

COc1ccc(NS(=O)(=O)c2ccc(Cl)s2)cn1
IC50 [1]: 14.9 µM (active)
IC50 [2]: > 66 µM (inactive)
IC50 [3]: 4.54 µM (active)
IC50 (Protein Rev): 6.3 µM (active)

O=C(CN1C(=O)NC2(CCCCC2)C1=O)Oc1ccc2c(C(F)(F)F)cc(=O)oc2c1
IC50 [1]: 38.3 µM (inactive)
IC50 [2]: > 66 µM (inactive)
IC50 (CHO): > 49.7 µM (inactive)
IC50 (Beta Lactamase): 3.48 µM (active)
IC50 [3]: 4.07 µM (active)
IC50 (Protein Rev): 65.3 µM (not active)

Oc1ccc(-c2cn3ccccc3n2)cc1O
IC50 (Large T antigen): 5.28 µM (active)
IC50 (Aspartyl aminopeptidase): 2.56 µM (active)
EC50 (cells [4]): 25.3 µM (active)
EC50 [5]: > 300 µM (not active)
AC50 [6]: 1.32 µM (active)
EC50 (cells [7]): > 350 µM (not active)
IC50 (Procathepsin L): > 59.6 µM (not active)
EC50 [8]: 13.6 µM (active)

COc1ccc2[nH]c(Sc3c([N+](=O)[O-])nc(C)n3Cc3ccccc3)nc2c1
EC50 [9]: 9.43 µM (active)
IC50 [10]: > 80 µM (inactive)
EC50 [11]: 8.34 µM (active)
EC50 [12]: 8.94 µM (active)

Clc1ccc(-n2nnnc2-c2cnc(-c3ccccn3)nc2-c2cccs2)cc1
IC50 [13]: 4.64 µM (active)
IC50 [14]: > 67 µM (not active)

CCOC(=O)c1cnc(-n2nc(C)cc2C)nc1NC(C)c1ccccc1 (stereo unspecified)
IC50 [13]: 5.88 µM (active)
AC50 (INS1): 4.89 µM (active)
IC50 [14]: > 67 µM (not active)
EC50 [15]: 5.04 µM (active)
EC50 [16]: 1.46 µM (active)
EC50 [17]: > 60 µM (not active)
EC50 (Streptococcus): 5.89 µM (active)
